From patent US12011476B2, “Treatments of oxidative stress conditions” (The University of Vermont and State Agricultural College, priority 2012, dated 2024)

How the values were obtained:
Format in all cases: cell-based, murine
Fas-SSG [1] = experiment: Immunoprecipitation of S-glutathionylated Fas (Fas-SSG) after FasL stimulation; details: FasL-stimulated cells, compared to the respective control (muscimol, DMSO, control siRNA)
Description: (§1) Exposure of cells to FasL: C10 cells were treated with 150 ng/ml FLAG-FasL (Alexis, San Diego, CA), plus 0.5 micrograms/ml anti-FLAG cross linking antibody, M2 (Sigma, St. Louis, MO). Primary lung fibroblasts and MTECs were treated with 300 ng/ml FasL, plus 1 microgram/ml M2. As reagent controls, cells were treated with M2 alone.
Immunoprecipitation of S-glutathionylated Fas: Immunoprecipitation of S-glutathionylated Fas was performed using established techniques.
C10 lung epithelial cells were stimulated with Flag tagged FasL plus anti-Flag (M2) crosslinking antibody, M2 alone (0), and at the indicated times, lysates were prepared and immunoprecipitated (IP) using an anti-GSH antibody. The subsequent western blot was probed with anti-Fas antibody (top panel). The +DTT control reflects lysates prepared from FasL-stimulated cells at 120 min treated with 25 mM DTT prior to IP with the anti-GSH antibody. Bottom panels: Content of Fas and Grx1 in whole cell lysates (WCL). […] C10 lung epithelial cells were stimulated with FasL plus M2 crosslinking antibody, or M2 alone, and at the indicated times, supernatants were collected. Free GSH was measured. * p<0.05 (ANOVA), compared to M2 controls at the same time points.

caspase 8 = experiment: Caspase-Glo 8 assay after FasL stimulation; details: FasL-stimulated cells, compared to the respective control
Description: as §1
(§2) Caspase-Glo assay: Caspase-8 and caspase-3 activities were measured using a Caspase-Glo 8 and Caspase-Glo 3/7 (Promega, Madison, WI) reagents, respectively according to the manufacturer's protocol (Promega, Madison, WI). Results were expressed in Relative Luminescence Units (RLU), after subtraction of background luminescence values. All results were obtained from 3 independent experiments conducted in triplicate.

caspase 3 = experiment: Caspase-Glo 3/7 assay after FasL stimulation; details: FasL-stimulated cells, compared to the respective control
Description: as §1, §2

C10 cells = experiment: Cell viability assay (MTT) after FasL stimulation; details: MTT assay after stimulation with FasL
Description: Cell viability assay: C10 cells or primary lung fibroblasts were plated in 12-well dishes. The MTT (3-(4,5-dimethylthiazol-2-yl)-2,5-diphenyltetrazolium bromide) assay was performed using known techniques. Results were obtained from 3 independent experiments conducted in triplicate.
Cells were exposed to FasL, and cell lysates processed as in FIG. 1A. Western blots from WCL were sequentially probed for Fas, ERp57 and GSTP1. […] Cells were treated with FasL, and lysates processed as in FIG. 2B. […] Cells were transfected with ERp57 and GSTP1 siRNA (E+P), and 24 hours later were exposed to FasL+M2 crosslinking antibody (FL), or M2 alone for 30 min. Cell lysates were subjected to IP of the DISC. Western blots were sequentially probed for Fas, FADD, procaspase 8, ERp57 and GSTP1. WCL: assessment of the same proteins in whole cell lysates, as a control.

Fas-SH = experiment: Labeling of free sulfhydryls of Fas (Fas-SH) with MPB, oxidative processing; details: FasL-stimulated cells
Description: Microscopy: Cells were fixed in 4% formalin and permeabilizied with 0.2% Triton-X100 in PBS. Permeabilized cells were blocked in PBS containing 2% BSA for 1 hour. Cells were sequentially incubated with primary antibodies (1:500-rabbit anti-ERp57/mouse anti-Fas) and secondary antibodies (1:1000-anti-rabbit-Alexa Fluor 488/anti-mouse Alexa Fluor 647). The nucleus was stained with DAPI (1:4000). Images were acquired using a Zeiss LSM 510 META Confocal Laser Scanning Imaging System. Images were captured at 40× magnification in oil immersion. The image files were converted to Tiff format. Brightness and contrast were adjusted equally in all images. Labeling of free sulfhydryls using biotinylated N-ethyl maleimide (MPB): Cells were lysed in HEPES buffer, pH 7.4 containing 0.5% NP40, with 150 micromolar MPB for 1 hour at ambient temperature. Lysates were centrifuged at 14,000 rpm and passed through a microbiospin (Bio-Rad) column to separate free MPB. The eluent whole cell lysate was immunoprecipitated using an anti-Fas antibody and sequentially probed using streptavidin HRP and anti-Fas antibody.
The transmembrane domain is underlined. ELD; extracellular ligand binding domain, CDD; Cytoplasmic Death Domain. […] C10 lung epithelial cells were treated with FasL. The lysates were labeled with MPB, and IPed using an anti-Fas antibody. […]

Fas-SSG [2] = experiment: Cell fractionation and IP of Fas-SSG (ER vs cytosol/pm); details: FasL-stimulated cells, vs DMSO vehicle control, FIG. 3D
Description: Cell Fractionation: Cell fractionation was carried out using the Calbiochem ProteoExtractTR (Cat. No. 539790) subcellular proteome extraction kit per the manufacturer's protocol.
Proteins from each fraction were subjected to IP using anti-GSH antibody. Western blots were probed for Fas. 25 micrograms of total protein from each fractions were separated on a SDS-PAGE and probed for Fas, ERp57, GSTP1, Prx1 (cytosolic protein), Flotillinl (Flot1, plasma membrane protein), calreticulin (CRT, an ER restricted protein), histone H3 (nuclear marker). […] Cells were treated with FasL, stained with ERp57, Fas, and the nuclear marker, DAPI. Merged images indicate co-localization of Fas and ERp57. […] Proteins from fractions characterized in FIG. 3A were subjected to IP using anti-GSTP1 antibodies, or control IgG. […] Epithelial cells were treated with FasL, in the presence or absence of Brefeldin A. Cells were fractionated as in FIG. 3A, and proteins from each fraction were subjected to IP using anti-GSH antibody. Western blots were probed for Fas. 25 micrograms of total protein from each fraction was separated on a SDS-PAGE and probed for Fas, ERp57, GSTP1, Prx1 (cytosol), Flot1 (plasma membrane), CRT (ER), H3 (nucleus).

GSTP = target: T1, GSTP (Mus musculus, UniProt P19157); experiment: GST activity assay (CDNB-GST) in treated cells; details: cells incubated with 50 micromolar for 2 hours, vs 0.2% DMSO, FIG. 5F
T1 construct: endogenous in cells; host or cells: murine lung epithelial cells (C10)
T1 sequence (P19157 2-210): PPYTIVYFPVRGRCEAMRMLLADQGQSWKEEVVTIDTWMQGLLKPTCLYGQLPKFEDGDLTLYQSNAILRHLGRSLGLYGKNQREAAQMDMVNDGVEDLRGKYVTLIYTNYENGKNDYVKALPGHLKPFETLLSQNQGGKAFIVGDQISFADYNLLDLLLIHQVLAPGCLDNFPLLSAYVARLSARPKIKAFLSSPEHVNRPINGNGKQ
Description: GST activity assay: The GST activity was determined using a colorimetric activity assay kit (ab65326, Abcam, Cambridge, MA) based on the GST-catalyzed reaction between GSH and the GST substrate, CDNB (1-chloro-2,4-dinitrobenzene). The GST-catalyzed formation of CDNB-GSH produced a dinitrophenyl thioether which can be detected spectrophotometrically at 340 nm.
(§3) The results are expressed as nmol of CDNB […]/min/mg protein. * p<0.05 (Student t-test) compared to DMSO controls. […] Cells were pre-incubated TLK-199 or DMSO for 2 hours, prior to stimulation with FasL. Lysates were processed as in FIG. 1A. Inhibition of GSTP decreased the activities of caspases 8 (FIG. 5H) and 3 (FIG. 5I) induced by FasL. * p<0.05 ANOVA, compared to DMSO controls. […] Mus: muscimol control. * p<0.05 ANOVA, compared to TNF-alpha+CHX controls.

caspase-3 = experiment: TNF-alpha plus cycloheximide (CHX) induced caspase-3 activation; details: pre-incubation before TNF-alpha in the presence of cycloheximide, FIG. 5J
Description: as §2
In addition to Fas, the extracellular/ligand binding domains of other members of the TNF receptor superfamily also contained cysteines that form intra-molecular disulfide bridges (—S—S—) to create the ligand binding domain. These experiments therefore determined whether ERp57-mediated oxidative processing regulates TNFR-dependent apoptosis. Cells were incubated with the ERp57 inhibitor, thiomuscimol prior to stimulation with TNF-alpha in the presence of cycloheximide (CHX) to induce apoptosis.
as §3

ERp57 = experiment: Protein disulfide isomerase (PDI) assay, insulin reduction, lysates of treated cells
Description: Protein disulfide isomerase (PDI) assay: 10 micrograms of total cell lysates were incubated with folded insulin, fibril protein binding dye for 1 hr. The fluorescence was then measured in a microplate reader set at a excitation of 500 nm and an emission of 603 nm, per the manufacturer's protocol (Proteostat™ PDI assay kit ENZ-51024-KP002). All results were obtained from 3 independent experiments conducted in triplicate.
Pharmacologic inhibition of ERp57 and GSTP1 decreased Fas-SSG and caspase activation: next, the contribution of the catalytic activities of ERp57 and GSTP in mediating S-glutathionylation of Fas, and subsequent activation of caspases, was asessed.
The results are expressed as relative fluorescence units (RFU). * p<0.05 (Student t-test) compared to muscimol treated cells. […] Cell lysates were processed as in FIG. 1A to determine Fas-SSG (FIGS. 5D and 5E). Inhibition of ERp57 decreased caspase 8, and caspase 3 activities. * p<0.05 ANOVA, compared to muscimol-treated cells.

| Compound | Fas-SSG in response to FasL (Fas-SSG [1]) | caspase 8 activity in response to FasL (caspase 8) | caspase 3 activity in response to FasL (caspase 3) | TNF-alpha/CHX-mediated activation of caspase-3 (caspase-3) | further results |
| --- | --- | --- | --- | --- | --- |
| CC(=O)OCOC(=O)CN(CC(=O)OCOC(C)=O)c1ccccc1OCCOc1ccccc1N(CC(=O)OCOC(C)=O)CC(=O)OCOC(C)=O [BAPTA-AM] | substantially diminished | decreased | decreased | – | cell survival / cell death in response to FasL (C10 cells): increased cell survival; Fas-SH content (oxidative processing of Fas) after FasL (Fas-SH): completely prevented the loss of Fas-SH groups |
| C[C@H]1CCC/C=C/[C@@H]2C[C@H](O)C[C@H]2[C@H](O)/C=C/C(=O)O1 [Brefeldin A] | – | – | – | – | movement of Fas-SSG from ER to cytosol/pm (Fas-SSG [2]): Fas-SSG remained restricted to the ER fraction |
| CCOC(=O)[C@@H](N)CCC(=O)N[C@@H](CSCc1ccccc1)C(=O)N[C@@H](C(=O)OCC)c1ccccc1 [TLK199, gamma-glutamyl-S-(benzyl)cysteinyl-R-phenyl glycine diethyl ester] | diminished | diminished | diminished | – | decrease in GSTP activity (GSTP): 80% |
| CC1(C)CC(=O)CC(=O)C1 [dimedone, 5,5-dimethyl-1,3-cyclohexanedione] | abolished | – | – | – | – |
| NCc1cc(=O)[nH]o1 [muscimol] | – | – | – | did not affect apoptosis | – |
| NCc1cc(O)ns1 [thiomuscimol, 5-aminomethyl-3-isothiazolol] | significantly attenuated | corresponding decreases | corresponding decreases | significantly decreased | inhibition of ERp57, as measured by RFU (ERp57; FIG. 10, THM vs DMSO, lysates incubated with Bacitracin for 2 hrs as positive control): exhibited inhibition of ERp57; decrease in insulin reducing activity (ERp57; epithelial cells incubated with thiomuscimol (10 micromolar), compared to muscimol controls, FIG. 5A): ~50% |
